The values that follow come from patent US7396842B2, “Five-membered cyclic compounds” (Dianippon Sumitomo Pharma Co., Ltd., priority 2002, dated 2008).

Like-named read-outs stand apart in the source and are kept apart here.

The target of data set [1] is T1, SMBS on rat lung membranes (Rattus norvegicus, UniProt A0A8I6A822).
T1 construct: from tissue; host or cells: rat lung membranes (SD male rats)
The data set is described as follows: Receptor binding of the compound in rat lung membranes ([125I]-iodo-cyanopindolol ligand binding assay; Experiments 1 and 4). The settings on record: rat lung membranes, read-out: Binding Activity (30 μM).

The subject of another data set is Hartley male guinea pigs. The data set is described as follows: Late asthmatic model in guinea pigs (ovalbumin sensitization and challenge, respiratory function sGaw). Format: in vivo, guinea pig. On the procedure: Experiment 2 Evaluation of the Compound in Late Asthmatic Model in Guinea Pigs
The evaluation test was carried out using the compound obtained in Example 1.
Hartley male guinea pigs (purchased from Japan SLC) were prefed for about 1 week after purchasing them, and exposed to a 2% (w/v) solution of ovalbumin (OA) in saline solution in a plastic box (4 animals/box) for 5 minutes and made them inhale it by using an ultrasonic nebulizer (OMRON NE-U12, conditions: maximum amount of atomization and maximum airflow) for sensitization (Day 0). The animals were subjected to the same procedures on the 7th day. On the 14th and 15th days, each one animal was made to inhale a 2% OA for 5 minutes for antigen-challenge. One hour prior to the antigen-challenge, pyrilamine maleate (antihistamic agent; dissolved in saline solution, 10 mg/2 ml/kg) was intraperitoneally administered to each animal. A test compound was suspended in a 0.5% methyl cellulose (MC), and administered intraperitoneally twice to each animal at 2 hours prior to, and 6 hours after the antigen-challenge at a dose of 100 mg/5 ml/kg. To the control group, a 0.5% MC was administered in the same manner instead of a test compound.
The measurement and analysis of the respiratory function were carried out by a modified method of the method of Hutson et al., (cf., Penny A. Hutson et al., Am Rev Respir Dis 1988 137, 548-557). Before the antigen-challenge (before the administration of the drug) and 5 minutes, and 3, 17 and 20 hours after the antigen-challenge, the respiratory function of each animal was measured, and the wave pattern was recorded using Maclab Chart v 3.4 (AD instruments), and the analysis of the respiratory function was carried out later by using thereof. The specific airway conductance (sGaw) was calculated, and the degree of the improvement of the respiratory function was evaluated by using it as an index.

In data set [2] the test system is leukocyte infiltration into the airway. The data set is described as follows: Leukocyte infiltration into the airway in the guinea pig models (BALF cell counts). Format: in vivo. On the procedure: Evaluation of the Compound in the Leukocyte Infiltration into the Airway in the Guinea Pig Models:
In the same manner to in Experiment 2, the sensitization, the antigen challenge, and the administration of pyrilamine maleate and a medicament were carried out.
The recovery of bronchoalveolar lavage fluid (BALF) was carried out at 24 hours after the antigen challenge. Namely, the animals were anesthetized by intraperitoneal administration of pentbarbital (50 mg/ml) at a dose of 0.5 ml per animal, and the animals were subjected to an abdominal operation after sufficiently anesthetized. The perineal abdominal aorta was cut and the animals were killed by venesection. The diaphragm was incised and the neck was also incised to expose the trachea. After the trachea was cut, a cannula was inserted thereto, and an ice-cooled saline solution (5 ml) was injected by using a 5 ml syringe. Then, the injection and the suction were repeated three times by using the same solution for recovery. The fluid was collected and filtered through a stainless mesh, and collected in a tube on the ice. These procedures were repeated twice, and the recovery fluid was collected into the same tube (cases wherein the fluid volume was not more than 7 ml were not employed as data).
After the recovery, the fluid volume to be recovered was measured with the eye, and the fluid was centrifuged at 1500 rpm at 4° C. for 3 minutes, and the supernant was discarded. The residue was subjected to hemolysis under hypooncotic conditions. The mixture was centrifuged at 1500 rpm at 4° C. for 3 minutes, and the supernatant was discarded. The cells thus collected were suspended in a phosphoric buffered saline solution (PBS (−))(1 ml) containing a 0.5% BSA. The total number of cells were counted in this suspension by an automated leukocyte counter. After the measurement, a slide preparation was prepared by using Cytospin, which was further stained with a Diff Quick Stainning Kit.

Setting [3] is: BALF recovered at 24 hours after the antigen challenge, guinea pig.
Setting [4] is: versus control group, BALF 24 hours after antigen challenge, 100 mg/5 ml/kg i.p. twice.

The melting point is the temperature, or range, at which the solid turns liquid.

T1 sequence (A0A8I6A822 27-587): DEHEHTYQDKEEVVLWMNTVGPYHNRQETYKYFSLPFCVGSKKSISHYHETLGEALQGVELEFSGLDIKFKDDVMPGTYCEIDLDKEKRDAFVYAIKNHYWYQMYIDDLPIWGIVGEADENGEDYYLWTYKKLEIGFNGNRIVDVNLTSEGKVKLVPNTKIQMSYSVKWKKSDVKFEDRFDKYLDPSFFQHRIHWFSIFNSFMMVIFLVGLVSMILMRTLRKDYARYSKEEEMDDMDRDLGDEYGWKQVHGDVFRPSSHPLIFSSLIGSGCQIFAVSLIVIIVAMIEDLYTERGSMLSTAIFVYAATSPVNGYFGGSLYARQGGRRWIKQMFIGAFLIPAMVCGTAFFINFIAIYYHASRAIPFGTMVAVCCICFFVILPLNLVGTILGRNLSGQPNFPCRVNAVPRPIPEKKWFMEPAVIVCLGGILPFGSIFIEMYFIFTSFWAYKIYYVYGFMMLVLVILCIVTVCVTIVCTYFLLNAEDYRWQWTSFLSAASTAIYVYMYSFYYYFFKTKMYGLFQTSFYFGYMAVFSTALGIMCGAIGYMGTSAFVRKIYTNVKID

`COc1ccc(C(=O)/N=c2\scc(-c3ccc(OC(F)(F)F)cc3)n2CCCNC(C)=O)c(OC)c1` [Example 446, N-[3-[3-(Acetoamino)propyl]-4-[4-(trifluoromethoxy)phenyl]-1,3-thiazol-2(3H)-ylidene]-2,4-dimethoxybenzamide] returned a melting point of 131 to 132 °C. Also, in data set [1] (Table 44, concentration tested 30 μM, Experiment 4), the inhibition at 30 µM is 97%.

`CN(C)CCCn1c(-c2ccc(Br)cc2)csc1=Nc1ccccc1` [Example 1, N-{4-(4-bromophenyl)-3-[3-(dimethylamino)propyl]thiazol-2(3H)-ylidene}aniline]: the “inhibitory rate of LAR (from rate of change of sGaw)” value in the data set with Hartley male guinea pigs (20-hr value, versus control group, 100 mg/5 ml/kg i.p. twice) is reported as “about 60%”. The “Rate of change of sGaw, 5 minutes” value in the data set on Hartley male guinea pigs (5 minutes after antigen challenge (IAR), 100 mg/5 ml/kg i.p. 2 h prior to and 6 h after challenge) was −33.8 ± 6.8%. Moreover, the “Rate of change of sGaw, 20 hours” value in the data set with Hartley male guinea pigs (20 hours after antigen challenge (LAR), 100 mg/5 ml/kg i.p. 2 h prior to and 6 h after challenge) is −14.2±15.0%. Also, the “inhibition of IAR induced immediately after the antigen challenge” value in the data set with Hartley male guinea pigs (result in words, 100 mg/5 ml/kg i.p. twice) is reported as “tendency of inhibiting the IAR”. Moreover, the inhibition at 30 µM in data set [1] (Table 37, compound concentration 30 μM, [125I]-iodo-cyanopindolol, Experiment 1) is 61.3%. For the same compound, in data set [2] (setting [3]), the “Number of eosinophils (×10^5)” value is 13.8 ± 5.1 ×10^5, the “Number of lymphocytes (×10^5)” value is 2.0 ± 0.6 ×10^5 and the “Total number of cells (×10^5)” value is given as 62.1 ± 8.6 ×10^5. In addition, in data set [2] (setting [4]), the “reduction of number of eosinophils in BALF” value was determined as 79%, the “reduction of number of lymphocytes in BALF” value was 70% and the “reduction of total number of cells in BALF” value is 82%.

In turn, `Cl.NCCCn1c(-c2ccc(Br)cc2)csc1=Nc1ccccc1` showed a melting point of 241 to 242 °C.
